Broadly, the Ki is the equilibrium dissociation constant of an inhibitor or competing ligand from its target.

For one assay, the target named is Glutamate receptor ionotropic, kainate. As to the kind of experiment: Binding affinity towards Ionotropic glutamate receptor kainate was determined in rat cortical membrane using [3H]KA as radioligand. Format: cell membranes.
For the compound `O=c1[nH]c2cc([N+](=O)[O-])c(-n3ccnc3)cc2n(O)c1=O`, the inhibition constant (Ki) came to 630 nM.

The target in a further assay is Glutamate NMDA receptor. As to the kind of experiment: Binding affinity towards NMDA receptor was determined in rat whole brain membrane using NMDA-sensitive [3H]Glu as radioligand. Format: cell membranes.
As to `O=c1[nH]c2cc([N+](=O)[O-])c(-n3ccnc3)cc2n(O)c1=O`, the Ki worked out at 12000 nM.

A further assay concerns the target Glutamate receptor ionotropic, NMDA 1 (Rattus norvegicus, UniProt P35439). As to the kind of experiment: Binding affinity towards glycine binding site on NMDA receptor was determined in rat whole brain membrane using strychnine-insensitive [3H]Gly as radioligand. It counts as cell membranes.
Compound `O=c1[nH]c2cc([N+](=O)[O-])c(-n3ccnc3)cc2n(O)c1=O` had a Ki of 4200 nM.
On the same count and under the same terms, then `O=c1[nH]c2cc(-n3ccnc3)c([N+](=O)[O-])cc2[nH]c1=O` [YM-90K], with 37000 nM.

For the next assay, the target named is Glutamate receptor ionotropic, AMPA (Rattus norvegicus, UniProt P19490+P19491+P19492+P19493).
Description: Binding affinity towards Ionotropic glutamate receptor AMPA was determined in rat whole brain membrane using [3H]AMPA as radioligand
In turn, `O=c1[nH]c2cc([N+](=O)[O-])c(-n3ccnc3)cc2n(C2CCNC2)c1=O` (configuration not stated) showed a Ki of 550 nM.
Compound `O=c1[nH]c2cc([N+](=O)[O-])c(-n3cncn3)cc2n(O)c1=O` displayed a Ki of 180 nM.
`CC(C)CCn1c(=O)c(=O)[nH]c2cc([N+](=O)[O-])c(-n3ccnc3)cc21` came in with an inhibition constant Ki of 230 nM.
As to `Cc1cn(-c2cc3c(cc2[N+](=O)[O-])[nH]c(=O)c(=O)n3O)cn1`, affinity was put at a Ki of 50 nM.
`CCCCCCCCCCn1c(=O)c(=O)[nH]c2cc([N+](=O)[O-])c(-n3ccnc3)cc21`: the inhibitory constant (Ki) was 8900 nM.
`O=c1[nH]c2cc([N+](=O)[O-])c(-n3ccnc3)cc2n(C2CCCCC2)c1=O` gave an inhibitory constant (Ki) of 110 nM.
`O=c1[nH]c2cc([N+](=O)[O-])c(-n3ccnc3)cc2n(CC2CCCCC2)c1=O` yielded a Ki of 790 nM.
`O=c1[nH]c2cc([N+](=O)[O-])c(-n3ccnc3)cc2n(C2CN3CCC2CC3)c1=O` (configuration not stated) gave an inhibition constant Ki of 1000 nM.
In turn, `O=c1[nH]c2cc([N+](=O)[O-])c(-n3ccnc3)cc2n(CCO)c1=O` registered a Ki of 420 nM.
In the case of `COn1c(=O)c(=O)[nH]c2cc([N+](=O)[O-])c(-n3ccnc3)cc21`, the inhibitory constant (Ki) was 380 nM.
Compound `CCOn1c(=O)c(=O)[nH]c2cc([N+](=O)[O-])c(-n3ccnc3)cc21` returned a Ki of 300 nM.
In turn, `CN(C)CCn1c(=O)c(=O)[nH]c2cc([N+](=O)[O-])c(-n3ccnc3)cc21` gave a Ki of 840 nM.
Take `O=c1[nH]c2cc(-n3ccnc3)c([N+](=O)[O-])cc2n(O)c1=O`: the inhibition constant (Ki) came out at 440 nM.
On to `CCn1c(=O)c(=O)[nH]c2cc([N+](=O)[O-])c(-n3ccnc3)cc21`, for which the Ki was 190 nM.
`CCCn1c(=O)c(=O)[nH]c2cc([N+](=O)[O-])c(-n3ccnc3)cc21` came in with a Ki of 140 nM.
Same read-out and setting: then `CCCn1c(=O)c(=O)[nH]c2cc(-n3ccnc3)c([N+](=O)[O-])cc21`, with 4500 nM; and `O=c1[nH]c2cc([N+](=O)[O-])c(-n3ccnc3)cc2n(O)c1=O`, with 21 nM.
In turn, `Cn1c(=O)c(=O)[nH]c2cc([N+](=O)[O-])c(-n3ccnc3)cc21` registered a Ki of 330 nM.

These data come from ChEMBL document CHEMBL1129427, “Novel AMPA receptor antagonists: synthesis and structure-activity relationships of 1-hydroxy-7-(1H-imidazol-1-yl)-6-nitro-2,3(1H,4H)- quinoxalinedione and related compounds” (J Med Chem, 1996).
